# How the values were obtained:
# [1] = target: GDP-bound KRAS protein (aa 1-169), containing both G12C and C118A amino acid substitutions (Homo sapiens (Human), UniProt P01116, C118A/G12C); test: Coupled nucleotide exchange assay (SOS-mediated nucleotide exchange, AlphaScreen); assay type: biochemical; conditions: read-out: Coupled exchange IC50 (5 min; μM); 5 min compound pre-incubation
# Procedure: Coupled Nucleotide Exchange Assay:
# Following compound pre-incubation, purified SOS protein (aa 564-1049) and GTP (Roche 10106399001) were added to the assay wells and incubated for an additional 30 min (for 5 min compound pre-incubation) or 1 hour (for 2 hour compound pre-incubation). […] The assay plates were then read on a PerkinElmer EnVision Multilabel Reader, using AlphaScreen® technology, and data were analyzed using a 4-parameter logistic model to calculate IC50 values.
# [2] = tested on: Phosphorylation of ERK1/2 in MIA PaCa-2 cells; test: Phospho-ERK1/2 MSD assay in MIA PaCa-2 cells; assay type: cell-based; conditions: Homo sapiens, MIA PaCa-2, 2 h, read-out: p-ERK IC50 (2 h, MiaPaCa-2; μM), 2 h compound treatment, MIA PaCa-2 cells, EGF stimulated
# Procedure, shortened: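 Phospho-ERK1/2 measured by MSD electrochemiluminescence kit in RIPA lysates of MIA PaCa-2 cells. Cells were treated with compound titrations for 2 or 4 h at 37 °C, 5% CO2, followed by a 10 min pulse of 10 ng/mL EGF.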
# [3] = tested on: Phosphorylation of ERK1/2 in A549 cells; test: Phospho-ERK1/2 MSD assay in A549 cells; assay type: cell-based; conditions: Homo sapiens, A549, 2 h, read-out: p-ERK IC50 (2 h, A549; μM), 2 h compound treatment, A549 cells, EGF stimulated
# Procedure, shortened: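 Phospho-ERK1/2 was quantified by MSD immunoassay in RIPA lysates of MIA PaCa-2 or A549 cells. Before lysis, cells received 10 ng/mL EGF for 10 min after 2 or 4 h exposure at 37° C. to a compound concentration series.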
# Chain of GDP-bound KRAS protein (aa 1-169), containing both G12C and C118A amino acid substitutions (P01116 other isoform, or with tags, fused parts or gaps G12C/C118A): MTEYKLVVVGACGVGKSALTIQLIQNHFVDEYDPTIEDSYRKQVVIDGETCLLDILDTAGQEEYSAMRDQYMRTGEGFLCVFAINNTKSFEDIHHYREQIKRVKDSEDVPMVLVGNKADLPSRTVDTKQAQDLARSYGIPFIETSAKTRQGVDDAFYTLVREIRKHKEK
structure (smiles),measurement,setting,value
"C=CC(=O)N1C[C@H](C)N(c2nc(=O)n(-c3c(C)ccnc3C(C)C)c3nc(-c4ccccc4NC(C)=O)c(Cl)cc23)C[C@H]1C (atropisomer, axis not shown; (M)) [Example 92-18, (M)-N-[2-[6-Chloro-4-[(2S,5R)-2,5-dimethyl-4-prop-2-enoyl-piperazin-1-yl]-1-(2-isopropyl-4-methyl-3-pyridyl)-2-oxo-pyrido[2,3-d]pyrimidin-7-yl]phenyl] acetamide]",IC50,[1],0.085 µM
same,IC50,[2],0.17 µM
same,IC50,[3],> 7.5 µM
"C=CC(=O)N1C[C@H](C)N(c2nc(=O)n(-c3c(C)ccnc3C(C)C)c3nc(-c4ccccc4N(C)C)c(Cl)cc23)C[C@H]1C (atropisomer, axis not shown; (M)) [Example 92-19, (M)-6-Chloro-7-[2-(dimethylamino)phenyl]-4-[(2S,5R)-2,5-dimethyl-4-prop-2-enoyl-piperazin-1-yl]-1-(2-isopropyl-4-methyl-3-pyridyl)pyrido [2,3-d]pyrimidin-2-one]",IC50,[1],0.044 µM
same,IC50,[2],0.027 µM
same,IC50,[3],> 7.5 µM
"C=CC(=O)N1C[C@H](C)N(c2nc(=O)n(-c3c(C)ccnc3C(C)C)c3nc(-c4ccccc4C(N)=O)c(Cl)cc23)C[C@H]1C (atropisomer, axis not shown; (M)) [Example 92-21, (M)-2-[6-Chloro-4-[(2S,5R)-2,5-dimethyl-4-prop-2-enoyl-piperazin-1-yl]-1-(2-isopropyl-4-methyl-3-pyridyl)-2-oxo-pyrido[2,3-d]pyrimidin-7-yl]benzamide]",IC50,[1],0.051 µM
same,IC50,[2],0.637 µM
same,IC50,[3],> 7.5 µM
"C=CC(=O)N1C[C@H](C)N(c2nc(=O)n(-c3c(C)ccnc3C(C)C)c3nc(-c4ccccc4C(F)(F)F)c(Cl)cc23)C[C@H]1C (atropisomer, axis not shown; (M)) [Example 92-23, (M)-6-Chloro-4-[(2S,5R)-2,5-dimethyl-4-prop-2-enoyl-piperazin-1-yl]-1-(2-isopropyl-4-methyl-3-pyridyl)-7-[2-(trifluoromethyl)phenyl]pyrido [2,3-d]pyrimidin-2-one]",IC50,[1],0.038 µM
same,IC50,[2],0.036 µM
same,IC50,[3],> 7.5 µM
"C=CC(=O)N1C[C@H](C)N(c2nc(=O)n(-c3c(C)ccnc3C(C)C)c3nc(-c4c(F)cccc4C(N)=O)c(Cl)cc23)C[C@H]1C (atropisomer, axis not shown; (M)) [Example 92-24, (M)-2-[6-Chloro-4-[(2S,5R)-2,5-dimethyl-4-prop-2-enoyl-piperazin-1-yl]-1-(2-isopropyl-4-methyl-3-pyridyl)-2-oxo-pyrido[2,3-d]pyrimidin-7-yl]-3-fluoro-benzamide]",IC50,[1],0.019 µM
same,IC50,[2],0.116 µM
same,IC50,[3],> 7.5 µM
"C=CC(=O)N1C[C@H](C)N(c2nc(=O)n(-c3c(C)ccnc3C(C)C)c3nc(-c4ccccc4NC)c(Cl)cc23)C[C@H]1C (atropisomer, axis not shown; (M)) [Example 92-25, (M)-6-Chloro-4-[(2S,5R)-2,5-dimethyl-4-prop-2-enoyl-piperazin-1-yl]-1-(2-isopropyl-4-methyl-3-pyridyl)-7-[2-(methylamino)phenyl]pyrido[2,3-d]pyrimidin-2-one]",IC50,[1],0.04 µM
same,IC50,[2],0.016 µM
same,IC50,[3],> 7.5 µM
"C=CC(=O)N1C[C@H](C)N(c2nc(=O)n(-c3c(C)ccnc3C(C)C)c3nc(-c4cc(F)cc(F)c4N)c(Cl)cc23)C[C@H]1C (atropisomer, axis not shown; (M)) [Example 92-26, (M)-7-(2-Amino-3,5-difluoro-phenyl)-6-chloro-4-[(2S,5R)-2,5-dimethyl-4-prop-2-enoyl-piperazin-1-yl]-1-(2-isopropyl-4-methyl-3-pyridyl)pyrido [2,3-d]pyrimidin-2-one]",IC50,[1],0.101 µM
same,IC50,[2],0.023 µM
same,IC50,[3],> 7.5 µM
"C=CC(=O)N1C[C@H](C)N(c2nc(=O)n(-c3c(C)ccnc3C(C)C)c3nc(-c4ccccc4C(=O)NC)c(Cl)cc23)C[C@H]1C (atropisomer, axis not shown; (M)) [Example 92-27, (M)-2-[6-Chloro-4-[(2S,5R)-2,5-dimethyl-4-prop-2-enoyl-piperazin-1-yl]-1-(2-isopropyl-4-methyl-3-pyridyl)-2-oxo-pyrido[2,3-d]pyrimidin-7-yl]-N-methyl-benzamide]",IC50,[1],0.149 µM
same,IC50,[2],0.735 µM
same,IC50,[3],> 7.5 µM
"C=CC(=O)N1C[C@H](C)N(c2nc(=O)n(-c3c(C)ccnc3C(C)C)c3nc(-c4ccccc4C(=O)N(C)C)c(Cl)cc23)C[C@H]1C (atropisomer, axis not shown; (M)) [Example 92-28, (M)-2-[6-Chloro-4-[(2S,5R)-2,5-dimethyl-4-prop-2-enoyl-piperazin-1-yl]-1-(2-isopropyl-4-methyl-3-pyridyl)-2-oxo-pyrido[2,3-d]pyrimidin-7-yl]-N,N-dimethyl-benzamide]",IC50,[1],0.123 µM
same,IC50,[2],0.11 µM
same,IC50,[3],> 7.5 µM
"C=CC(=O)N1C[C@H](C)N(c2nc(=O)n(-c3c(C)ccnc3C(C)C)c3nc(-c4ccccc4C(=O)O)c(Cl)cc23)C[C@H]1C (atropisomer, axis not shown; (M)) [Example 92-29, (M)-2-[6-Chloro-4-[(2S,5R)-2,5-dimethyl-4-prop-2-enoyl-piperazin-1-yl]-1-(2-isopropyl-4-methyl-3-pyridyl)-2-oxo-pyrido[2,3-d]pyrimidin-7-yl]benzoic acid]",IC50,[1],0.139 µM
same,IC50,[2],10 µM
same,IC50,[3],> 7.5 µM
"C=CC(=O)N1C[C@H](C)N(c2nc(=O)n(-c3c(C)ccnc3C(C)C)c3nc(-c4cc(F)c(F)cc4N)c(Cl)cc23)C[C@H]1C (atropisomer, axis not shown; (M)) [Example 92-31, (M)-7-(2-Amino-4,5-difluoro-phenyl)-6-chloro-4-[(2S,5R)-2,5-dimethyl-4-prop-2-enoyl-piperazin-1-yl]-1-(2-isopropyl-4-methyl-3-pyridyl)pyrido [2,3-d]pyrimidin-2-one]",IC50,[1],0.014 µM
same,IC50,[2],0.022 µM
same,IC50,[3],> 7.5 µM
"C=CC(=O)N1C[C@H](C)N(c2nc(=O)n(-c3c(C)ccnc3C(C)C)c3nc(-c4ccccc4NS(C)(=O)=O)c(Cl)cc23)C[C@H]1C (atropisomer, axis not shown; (M)) [Example 92-32, (M)-N-[2-[6-Chloro-4-[(2S,5R)-2,5-dimethyl-4-prop-2-enoyl-piperazin-1-yl]-1-(2-isopropyl-4-methyl-3-pyridyl)-2-oxo-pyrido[2,3-d]pyrimidin-7-yl]phenyl] methanesul-fonamide]",IC50,[1],0.075 µM
same,IC50,[2],0.129 µM
same,IC50,[3],> 7.5 µM
"C=CC(=O)N1C[C@H](C)N(c2nc(=O)n(-c3c(C)ccnc3C(C)C)c3nc(-c4ccccc4S(N)(=O)=O)c(Cl)cc23)C[C@H]1C (atropisomer, axis not shown; (M)) [Example 92-33, (M)-2-[6-Chloro-4-[(2S,5R)-2,5-dimethyl-4-prop-2-enoyl-piperazin-1-yl]-1-(2-isopropyl-4-methyl-3-pyridyl)-2-oxo-pyrido[2,3-d]pyrimidin-7-yl] benzenesul-fonamide]",IC50,[1],0.113 µM
same,IC50,[2],0.216 µM
same,IC50,[3],> 7.5 µM
"C=CC(=O)N1C[C@H](C)N(c2nc(=O)n(-c3c(C)ccnc3C(C)C)c3nc(-c4cc(O)ccc4F)c(Cl)cc23)C[C@H]1C (atropisomer, axis not shown; (M)) [Example 92-34, (M)-6-Chloro-4-[(2S,5R)-2,5-dimethyl-4-prop-2-enoyl-piperazin-1-yl]-7-(2-fluoro-5-hydroxy-phenyl)-1-(2-isopropyl-4-methyl-3-pyridyl)pyrido [2,3-d]pyrimidin-2-one]",IC50,[1],0.054 µM
same,IC50,[2],0.06 µM
same,IC50,[3],> 7.5 µM
"C=CC(=O)N1C[C@H](C)N(c2nc(=O)n(-c3c(C)ccnc3C(C)C)c3nc(-c4ccccc4[N+](=O)[O-])c(Cl)cc23)C[C@H]1C (atropisomer, axis not shown; (M)) [Example 92-36, (M)-6-Chloro-4-[(2S,5R)-2,5-dimethyl-4-prop-2-enoyl-piperazin-1-yl]-1-(2-isopropyl-4-methyl-3-pyridyl)-7-(2-nitrophenyl) pyrido[2,3-d]pyrimidin-2-one]",IC50,[1],0.275 µM
same,IC50,[2],0.133 µM
same,IC50,[3],1.87 µM
"C=CC(=O)N1C[C@H](C)N(c2nc(=O)n(-c3c(C)ccnc3C(C)C)c3nc(-c4cc(Br)ccc4F)c(Cl)cc23)C[C@H]1C (atropisomer, axis not shown; (M)) [Example 92-37, (M)-7-(5-Bromo-2-fluoro-phenyl)-6-chloro-4-[(2S,5R)-2,5-dimethyl-4-prop-2-enoyl-piperazin-1-yl]-1-(2-isopropyl-4-methyl-3-pyridyl)pyrido [2,3-d]pyrimidin-2-one]",IC50,[1],0.048 µM
same,IC50,[2],0.06 µM
same,IC50,[3],> 7.5 µM
"C=CC(=O)N1C[C@H](C)N(c2nc(=O)n(-c3c(C)ccnc3C(C)C)c3nc(-c4cc(C#CC)ccc4F)c(Cl)cc23)C[C@H]1C (atropisomer, axis not shown; (M)) [Example 92-39, (M)-6-Chloro-4-[(2S,5R)-2,5-dimethyl-4-prop-2-enoyl-piperazin-1-yl]-7-(2-fluoro-5-prop-1-ynyl-phenyl)-1-(2-isopropyl-4-methyl-3-pyridyl)pyrido [2,3-d]pyrimidin-2-one]",IC50,[1],0.032 µM
same,IC50,[2],0.145 µM
same,IC50,[3],> 7.5 µM

# From US11285156B2, “Substituted piperazines as KRAS G12C inhibitors” (Amgen Inc., priority 2018, dated 2022)
